Results taken from patent publication US10626144B2, “Peptide derivatives and uses thereof” (Nosopharm, priority 2014, dated 2020).
Numbered stars: 1 amine (or outer) side, 2 acyl side, 3 side chain; on linkers, the order of the positions; unused ones are H or OH. Square brackets hold non-standard residues; d marks the D form. Peptide text beside a SMILES is read from it. * marks the point of attachment. Pro(trans-4-F) = O=C(O)[C@@H]1C[C@@H](F)CN1; Phe(3-Me) = Cc1cccc(C[C@H](N)C(=O)O)c1; Pro(4,4-F2) = O=C(O)[C@@H]1CC(F)(F)CN1; Pro(5S-Me) = C[C@H]1CC[C@@H](C(=O)O)N1; Dab(3S-OH) = NC[C@H](O)[C@H](N)C(=O)O; ΔZArg = N=C(N)NCC/C=C(\N)C(=O)O; X2 = CC=C(N[*:1])C(=O)[*:2]; dOrn = NCCC[C@@H](N)C(=O)O; Pip = O=C(O)[C@@H]1CCCCN1; Orn = NCCC[C@H](N)C(=O)O; Aze = O=C(O)[C@@H]1CCN1; Dab = NCC[C@H](N)C(=O)O; NH(CH2)4NH2 = NCCCCN*

Experiments:
Test in all cases: MIC, broth microdilution (CLSI), reference strain
Conditions in all cases: CAMHB
[1] = test system: Pseudomonas aeruginosa ATCC 27853
[2] = test system: Escherichia coli ATCC 25922
[3] = test system: Staphylococcus aureus ATCC 13709
[4] = test system: Acinetobacter baumannii ATCC 19606

Compound	Pa: MIC Pseudomonas aeruginosa ATCC 27853 [1]	Ec: MIC Escherichia coli ATCC 25922 [2]	Sa: MIC Staphylococcus aureus ATCC 13709 [3]	Ab: MIC Acinetobacter baumannii ATCC 19606 [4]
N=C(N)NCC/C=C(\NC(=O)[C@H](CCCCN)NC(=O)[C@H](Cc1cnc[nH]1)NC(=O)[C@@H]1CCCN1C(=O)[C@@H](CCCN)NC(=O)CNC(=O)CNC(=O)[C@H](CCN)NC(=O)[C@@H](N)CCCCN)C(=O)N[C@@H](CCCCN)C(=O)NCCCCN [13.1] (H-K[Dab]GG[dOrn]PHK[ΔZArg]K-{NH(CH2)4NH2})	− (>32 μg/mL)	− (>32 μg/mL)	+ (≤32 μg/mL)	− (>32 μg/mL)
N=C(N)NCC/C=C(\NC(=O)[C@H](CCCCN)NC(=O)[C@H](Cc1cnc[nH]1)NC(=O)[C@@H]1CCCN1C(=O)[C@@H](CCCN)NC(=O)CNC(=O)[C@H](CCCCN)NC(=O)[C@@H](NC(=O)[C@@H](N)CCCCN)[C@@H](O)CN)C(=O)O [215.1] (H-K[Dab(3S-OH)]KG[dOrn]PHK[ΔZArg]-OH)	− (>32 μg/mL)	+ (≤32 μg/mL)	++ (≤8 μg/mL)	− (>32 μg/mL)
C[C@H](NC(=O)[C@@H](NC(=O)[C@@H](N)CCCCN)[C@@H](O)CN)C(=O)NCC(=O)N[C@H](CCCN)C(=O)N1CCCC[C@H]1C(=O)N[C@@H](Cc1cnc[nH]1)C(=O)N[C@@H](CCCCN)C(=O)N/C(=C\CCNC(=N)N)C(=O)N[C@@H](CCCCN)C(=O)NCCCCN [24.3] (H-K[Dab(3S-OH)]AG[dOrn][Pip]HK[ΔZArg]K-{NH(CH2)4NH2})	+ (≤32 μg/mL)	++ (≤8 μg/mL)	++ (≤8 μg/mL)	− (>32 μg/mL)
C[C@H](NC(=O)[C@@H](NC(=O)[C@@H](N)CCCCN)[C@@H](O)CN)C(=O)NCC(=O)N[C@H](CCCN)C(=O)N1CC(F)(F)C[C@H]1C(=O)N[C@@H](Cc1cnc[nH]1)C(=O)N[C@@H](CCCCN)C(=O)N/C(=C\CCNC(=N)N)C(=O)O [24.141] (H-K[Dab(3S-OH)]AG[dOrn][Pro(4,4-F2)]HK[ΔZArg]-OH)	− (>32 μg/mL)	− (>32 μg/mL)	++ (≤8 μg/mL)	− (>32 μg/mL)
Cc1cccc(C[C@H](NC(=O)[C@@H]2CCCN2C(=O)[C@@H](CCCN)NC(=O)CNC(=O)[C@H](CCCN)NC(=O)[C@@H](NC(=O)[C@@H](N)CCCCN)[C@@H](O)CN)C(=O)N[C@@H](CCCCN)C(=O)N/C(=C\CCNC(=N)N)C(=O)O)c1 [211.5] (H-K[Dab(3S-OH)][Orn]G[dOrn]P[Phe(3-Me)]K[ΔZArg]-OH)	− (>32 μg/mL)	++ (≤8 μg/mL)	++ (≤8 μg/mL)	− (>32 μg/mL)
N=C(N)NCC/C=C(\NC(=O)[C@H](CCCCN)NC(=O)[C@H](Cc1c[nH]c2ccccc12)NC(=O)[C@@H]1CCCN1C(=O)[C@@H](CCCN)NC(=O)CNC(=O)[C@@H](NC(=O)[C@@H](NC(=O)[C@@H](N)CCCCN)[C@@H](O)CN)[C@@H](O)CN)C(=O)O [22.41] (H-K[Dab(3S-OH)][Dab(3S-OH)]G[dOrn]PWK[ΔZArg]-OH)	− (>32 μg/mL)	++ (≤8 μg/mL)	++ (≤8 μg/mL)	− (>32 μg/mL)
C[C@H](NC(=O)[C@H](CCN)NC(=O)[C@@H](N)CCCCN)C(=O)NCC(=O)N[C@H](CCCN)C(=O)N1CCCC[C@H]1C(=O)N[C@@H](Cc1cnc[nH]1)C(=O)N[C@@H](CCCCN)C(=O)N/C(=C\CCNC(=N)N)C(=O)N[C@@H](CCCCN)C(=O)NCCCCN [14.13] (H-K[Dab]AG[dOrn][Pip]HK[ΔZArg]K-{NH(CH2)4NH2})	− (>32 μg/mL)	+ (≤32 μg/mL)	++ (≤8 μg/mL)	− (>32 μg/mL)
C[C@H](NC(=O)/C(=C/CCNC(=N)N)NC(=O)[C@H](CCCCN)NC(=O)[C@H](Cc1cnc[nH]1)NC(=O)[C@@H]1CCCN1C(=O)[C@@H](CCCN)NC(=O)CNC(=O)[C@H](C)NC(=O)[C@H](CCN)NC(=O)[C@@H](N)CCCCN)C(=O)NCCCCN [14.23] (H-K[Dab]AG[dOrn]PHK[ΔZArg]A-{NH(CH2)4NH2})	− (>32 μg/mL)	− (>32 μg/mL)	+ (≤32 μg/mL)	− (>32 μg/mL)
C[C@H](NC(=O)[C@@H](NC(=O)[C@@H](N)CCCCN)[C@@H](O)CN)C(=O)NCC(=O)N[C@H](CCCN)C(=O)N1[C@@H](C)CC[C@H]1C(=O)N[C@@H](Cc1cnc[nH]1)C(=O)N[C@@H](CCCCN)C(=O)N/C(=C\CCNC(=N)N)C(=O)O [24.145] (H-K[Dab(3S-OH)]AG[dOrn][Pro(5S-Me)]HK[ΔZArg]-OH)	− (>32 μg/mL)	+ (≤32 μg/mL)	++ (≤8 μg/mL)	− (>32 μg/mL)
N=C(N)NCC/C=C(\NC(=O)[C@H](CCCCN)NC(=O)[C@H](Cc1cnc[nH]1)NC(=O)[C@@H]1C[C@@H](F)CN1C(=O)[C@@H](CCCN)NC(=O)CNC(=O)[C@@H](NC(=O)[C@@H](NC(=O)[C@@H](N)CCCCN)[C@@H](O)CN)[C@@H](O)CN)C(=O)N[C@@H](CCCCN)C(=O)NCCCCN [22.13] (H-K[Dab(3S-OH)][Dab(3S-OH)]G[dOrn][Pro(trans-4-F)]HK[ΔZArg]K-{NH(CH2)4NH2})	++ (≤8 μg/mL)	+ (≤32 μg/mL)	++ (≤8 μg/mL)	− (>32 μg/mL)
C[C@H](NC(=O)[C@@H](NC(=O)[C@@H](N)CCCCN)[C@@H](O)CN)C(=O)NCC(=O)N[C@H](CCCN)C(=O)N1CC[C@H]1C(=O)N[C@@H](Cc1cnc[nH]1)C(=O)N[C@@H](CCCCN)C(=O)N/C(=C\CCNC(=N)N)C(=O)O [24.73] (H-K[Dab(3S-OH)]AG[dOrn][Aze]HK[ΔZArg]-OH)	− (>32 μg/mL)	+ (≤32 μg/mL)	+ (≤32 μg/mL)	− (>32 μg/mL)
C[C@H](NC(=O)[C@H](CCN)NC(=O)[C@@H](N)CCCCN)C(=O)NCC(=O)N[C@H](CCCN)C(=O)N1CCC[C@H]1C(=O)N[C@@H](Cc1cnc[nH]1)C(=O)N[C@@H](CCCCN)C(=O)N/C(=C\CCNC(=N)N)C(=O)N[C@@H](CCCCN)C(=O)O [14.21] (H-K[Dab]AG[dOrn]PHK[ΔZArg]K-OH)	− (>32 μg/mL)	− (>32 μg/mL)	+ (≤32 μg/mL)	− (>32 μg/mL)
C[C@H](NC(=O)[C@@H](NC(=O)[C@@H](N)CCCCN)[C@@H](O)CN)C(=O)NCC(=O)N[C@H](CCCN)C(=O)N1CCC[C@H]1C(=O)N[C@@H](CCC(=O)O)C(=O)N[C@@H](CCCCN)C(=O)N/C(=C\CCNC(=N)N)C(=O)N[C@@H](CCCCN)C(=O)NCCCCN [24.118] (H-K[Dab(3S-OH)]AG[dOrn]PEK[ΔZArg]K-{NH(CH2)4NH2})	− (>32 μg/mL)	− (>32 μg/mL)	++ (≤8 μg/mL)	− (>32 μg/mL)
C[C@H](NC(=O)[C@@H](NC(=O)[C@@H](N)CCCCN)[C@@H](O)CN)C(=O)NCC(=O)N[C@H](CCCN)C(=O)N1C[C@H](F)C[C@H]1C(=O)N[C@@H](Cc1cnc[nH]1)C(=O)N[C@@H](CCCCN)C(=O)N/C(=C\CCNC(=N)N)C(=O)O [24.142] (H-K[Dab(3S-OH)]AG[dOrn][Pro(trans-4-F)]HK[ΔZArg]-OH)	− (>32 μg/mL)	+ (≤32 μg/mL)	+ (≤32 μg/mL)	− (>32 μg/mL)
CC=C(NC(=O)[C@H](CCCCN)NC(=O)[C@H](Cc1cnc[nH]1)NC(=O)[C@@H]1CCCN1C(=O)[C@@H](CCCN)NC(=O)CNC(=O)[C@H](C)NC(=O)[C@@H](NC(=O)[C@@H](N)CCCCN)[C@@H](O)CN)C(=O)N[C@@H](CCCCN)C(=O)NCCCCN [24.8] (H-K[Dab(3S-OH)]AG[dOrn]PHK[X2]K-{NH(CH2)4NH2})	− (>32 μg/mL)	+ (≤32 μg/mL)	++ (≤8 μg/mL)	− (>32 μg/mL)
C[C@@H](O)[C@H](NC(=O)[C@H](CCN)NC(=O)[C@@H](N)CCCCN)C(=O)NCC(=O)N[C@H](CCCN)C(=O)N1CCC[C@H]1C(=O)N[C@@H](Cc1cnc[nH]1)C(=O)N[C@@H](CCCCN)C(=O)N/C(=C\CCNC(=N)N)C(=O)N[C@@H](CCCCN)C(=O)NCCCCN [15.3] (H-K[Dab]TG[dOrn]PHK[ΔZArg]K-{NH(CH2)4NH2})	− (>32 μg/mL)	− (>32 μg/mL)	++ (≤8 μg/mL)	− (>32 μg/mL)
C[C@H](NC(=O)[C@@H](NC(=O)[C@@H](N)CCCCN)[C@@H](O)CN)C(=O)NCC(=O)N[C@H](CCCN)C(=O)N1CCC[C@H]1C(=O)N[C@@H](Cc1cnc[nH]1)C(=O)N[C@@H](CCCCN)C(=O)N/C(=C\CCNC(=N)N)C(N)=O [24.5] (H-K[Dab(3S-OH)]AG[dOrn]PHK[ΔZArg]-NH2)	− (>32 μg/mL)	–	–	− (>32 μg/mL)
C[C@H](NC(=O)[C@@H](NC(=O)[C@@H](N)CCCCN)[C@@H](O)CN)C(=O)NCC(=O)N[C@H](CCCN)C(=O)N1CCC[C@H]1C(=O)N[C@@H](Cc1cnc[nH]1)C(=O)N[C@@H](CCCCN)C(=O)N/C(=C\CCNC(=N)N)C(N)=O [24.125] (H-K[Dab(3S-OH)]AG[dOrn]PHK[ΔZArg]-NH2)	–	++ (≤8 μg/mL)	++ (≤8 μg/mL)	–
